# Laboratory results published in publication PMC12305662, “Fragment-Based Development of Small Molecule Inhibitors Targeting Mycobacterium tuberculosis Cholesterol Metabolism” (Journal of Medicinal Chemistry, 2025).
# Where two headings read alike, the source gives them in different places.
# How the values were obtained:
# CYP125 = CYP125 (Mycobacterium tuberculosis, UniProt P9WPP1); assay type: binding; details: for CYP125 Δλmax (nm) HS: high spin population, '-' = no HS maxima present; for CYP125 Δλmax (nm) LS: low spin population, '-' = no LS maxima present; for Δλmax (nm) CYP125, fragment screen: fragment 1 mM, P450 4-6 µM, Soret shift relative to DMSO (393 nm)
# CYP142 = CYP142 (Mycobacterium tuberculosis, UniProt P9WPL5); details: for CYP142 Δλmax (nm): compound 100 µM, P450 5 µM; for Δλmax (nm) CYP142, fragment screen: fragment 1 mM, P450 4-6 µM, relative to DMSO (418.5 nm)
# CYP144 = CYP144 (Mycobacterium tuberculosis, UniProt P9WPL1); details: fragment 1 mM, P450 4-6 µM; relative to DMSO (421 nm)
# CYP121 = CYP121 (Mycobacterium tuberculosis, UniProt P9WPP7); details: fragment 1 mM, P450 4-6 µM; relative to DMSO (417 nm)
# CYP124 = CYP124 (Mycobacterium tuberculosis, UniProt P9WPP3); details: fragment 1 mM, P450 4-6 µM; relative to DMSO (419 nm)
# CYP143 = CYP143 (Mycobacterium tuberculosis, UniProt P9WPL3); details: fragment 1 mM, P450 4-6 µM; relative to DMSO (416 nm)
# CYP126 = CYP126 (Mycobacterium tuberculosis, UniProt P9WPN9); details: fragment 1 mM, P450 4-6 µM; relative to DMSO (418 nm)
# [1] = compound 100 µM, P450 5 µM, ratio of low spin to high spin CYP125
# Chain of CYP125 (P9WPP1 whole entry, the tested form may be a part): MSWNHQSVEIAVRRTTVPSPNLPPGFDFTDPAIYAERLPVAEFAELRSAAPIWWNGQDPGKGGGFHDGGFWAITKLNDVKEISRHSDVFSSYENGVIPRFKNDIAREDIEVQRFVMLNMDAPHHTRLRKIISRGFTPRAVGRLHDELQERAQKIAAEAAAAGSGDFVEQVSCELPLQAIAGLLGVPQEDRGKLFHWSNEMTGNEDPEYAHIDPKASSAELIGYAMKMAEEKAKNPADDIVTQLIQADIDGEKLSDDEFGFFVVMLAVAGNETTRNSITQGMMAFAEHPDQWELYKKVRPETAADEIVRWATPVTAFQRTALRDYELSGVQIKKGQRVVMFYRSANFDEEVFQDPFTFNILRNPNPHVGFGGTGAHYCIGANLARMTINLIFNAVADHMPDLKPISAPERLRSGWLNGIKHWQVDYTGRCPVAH
# Chain of CYP121 (P9WPP7 whole entry, the tested form may be a part): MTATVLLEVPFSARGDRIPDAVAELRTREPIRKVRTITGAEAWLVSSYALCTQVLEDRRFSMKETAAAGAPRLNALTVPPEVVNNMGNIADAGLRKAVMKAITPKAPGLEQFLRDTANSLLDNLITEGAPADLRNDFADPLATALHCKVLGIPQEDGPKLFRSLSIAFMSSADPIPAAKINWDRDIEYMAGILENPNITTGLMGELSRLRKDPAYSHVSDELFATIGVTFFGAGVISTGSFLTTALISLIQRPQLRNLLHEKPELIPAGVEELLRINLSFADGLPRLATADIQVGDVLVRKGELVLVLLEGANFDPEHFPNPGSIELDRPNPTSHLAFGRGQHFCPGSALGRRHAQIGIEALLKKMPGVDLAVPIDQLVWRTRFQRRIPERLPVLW
# Chain of CYP144 (P9WPL1 whole entry, the tested form may be a part): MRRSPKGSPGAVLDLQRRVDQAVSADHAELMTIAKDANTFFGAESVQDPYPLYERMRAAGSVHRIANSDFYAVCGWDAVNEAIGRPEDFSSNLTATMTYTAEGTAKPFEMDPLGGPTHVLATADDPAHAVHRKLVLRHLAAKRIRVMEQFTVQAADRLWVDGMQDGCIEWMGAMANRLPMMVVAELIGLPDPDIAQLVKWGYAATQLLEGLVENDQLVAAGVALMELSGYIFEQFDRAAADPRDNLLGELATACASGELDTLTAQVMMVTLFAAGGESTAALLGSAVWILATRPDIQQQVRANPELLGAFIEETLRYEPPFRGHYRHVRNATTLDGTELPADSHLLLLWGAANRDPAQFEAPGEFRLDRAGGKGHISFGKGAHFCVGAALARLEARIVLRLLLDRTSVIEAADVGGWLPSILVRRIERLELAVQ
# Chain of CYP143 (P9WPL3 whole entry, the tested form may be a part): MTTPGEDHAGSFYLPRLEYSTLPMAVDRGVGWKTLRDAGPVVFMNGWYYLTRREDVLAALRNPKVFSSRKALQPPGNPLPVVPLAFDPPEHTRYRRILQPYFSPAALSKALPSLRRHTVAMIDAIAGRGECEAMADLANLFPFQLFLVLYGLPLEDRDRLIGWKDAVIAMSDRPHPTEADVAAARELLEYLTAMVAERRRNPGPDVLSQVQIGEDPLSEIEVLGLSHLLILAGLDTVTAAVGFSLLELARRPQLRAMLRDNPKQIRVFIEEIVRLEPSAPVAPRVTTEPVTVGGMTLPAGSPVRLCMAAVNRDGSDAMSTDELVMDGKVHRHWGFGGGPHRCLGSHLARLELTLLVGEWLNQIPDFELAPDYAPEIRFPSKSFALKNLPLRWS
# Chain of CYP124 (P9WPP3 whole entry, the tested form may be a part): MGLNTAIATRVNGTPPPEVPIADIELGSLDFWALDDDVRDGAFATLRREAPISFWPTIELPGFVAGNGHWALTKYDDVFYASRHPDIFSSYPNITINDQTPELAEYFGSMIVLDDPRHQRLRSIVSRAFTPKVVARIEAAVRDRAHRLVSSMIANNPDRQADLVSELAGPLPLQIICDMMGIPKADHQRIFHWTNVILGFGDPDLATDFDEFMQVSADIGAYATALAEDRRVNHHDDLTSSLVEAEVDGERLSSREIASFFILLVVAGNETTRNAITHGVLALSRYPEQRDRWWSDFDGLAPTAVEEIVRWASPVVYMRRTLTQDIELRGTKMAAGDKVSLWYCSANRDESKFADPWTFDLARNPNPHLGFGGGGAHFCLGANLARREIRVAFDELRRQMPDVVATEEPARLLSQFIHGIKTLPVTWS
# Chain of CYP142 (P9WPL5 whole entry, the tested form may be a part): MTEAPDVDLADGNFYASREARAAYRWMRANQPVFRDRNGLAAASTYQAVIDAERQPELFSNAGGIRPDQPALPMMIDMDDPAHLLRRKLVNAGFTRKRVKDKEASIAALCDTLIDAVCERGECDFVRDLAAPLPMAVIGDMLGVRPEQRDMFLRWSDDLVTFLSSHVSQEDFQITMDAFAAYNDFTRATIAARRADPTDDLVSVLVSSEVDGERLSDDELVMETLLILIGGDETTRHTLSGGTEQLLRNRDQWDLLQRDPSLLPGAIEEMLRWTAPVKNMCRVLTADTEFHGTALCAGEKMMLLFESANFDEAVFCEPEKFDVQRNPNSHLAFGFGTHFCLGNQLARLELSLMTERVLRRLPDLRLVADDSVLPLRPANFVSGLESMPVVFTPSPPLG
# Chain of CYP126 (P9WPN9 whole entry, the tested form may be a part): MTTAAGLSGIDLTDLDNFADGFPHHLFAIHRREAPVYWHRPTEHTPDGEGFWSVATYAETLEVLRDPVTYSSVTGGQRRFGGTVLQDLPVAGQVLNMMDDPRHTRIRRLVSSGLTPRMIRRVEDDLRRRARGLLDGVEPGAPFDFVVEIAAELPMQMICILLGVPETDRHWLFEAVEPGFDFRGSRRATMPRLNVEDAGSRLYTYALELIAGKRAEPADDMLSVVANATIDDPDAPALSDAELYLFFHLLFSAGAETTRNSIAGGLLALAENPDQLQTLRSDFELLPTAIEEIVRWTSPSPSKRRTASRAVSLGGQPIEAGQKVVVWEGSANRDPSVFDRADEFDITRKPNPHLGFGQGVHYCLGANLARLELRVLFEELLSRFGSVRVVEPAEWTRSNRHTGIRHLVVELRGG
compound,measurement,setting,value
3-(Pyridin-4-ylmethyl)aniline [3d],CYP125 Δλmax (nm) HS,"CYP125; compound 100 µM, P450 5 µM",3 nm
same,CYP125 Δλmax (nm) LS,"CYP125; compound 100 µM, P450 5 µM",29 nm
"CN(c1ccccc1)c1ccncc1 [2b, N-Methyl-N-phenylpyridin-4-amine]",CYP142 Δλmax (nm),CYP142,4 nm
same,CYP125 Δλmax (nm) HS,"CYP125; compound 100 µM, P450 5 µM",1 nm
same,CYP125 Δλmax (nm) LS,"CYP125; compound 100 µM, P450 5 µM",25 nm
same,CYP125 LS/HS,CYP125; [1],0.9
"c1ccc(N(c2ccccc2)c2ccncc2)cc1 [2c, N,N-Diphenylpyridin-4-amine]",CYP142 Δλmax (nm),CYP142,4 nm
same,CYP125 Δλmax (nm) HS,"CYP125; compound 100 µM, P450 5 µM",2 nm
same,CYP125 Δλmax (nm) LS,"CYP125; compound 100 µM, P450 5 µM",28 nm
same,CYP125 LS/HS,CYP125; [1],1
"c1ccc(Oc2ccncc2)cc1 [2d, 4-Phenoxypyridine]",CYP142 Δλmax (nm),CYP142,2 nm
same,CYP125 Δλmax (nm) HS,"CYP125; compound 100 µM, P450 5 µM",1 nm
same,CYP125 Δλmax (nm) LS,"CYP125; compound 100 µM, P450 5 µM",25 nm
same,CYP125 LS/HS,CYP125; [1],1
"O=S(=O)(c1ccccc1)c1ccncc1 [2e, 4-(Phenylsulfonyl)pyridine]",CYP142 Δλmax (nm),CYP142,0 nm
same,CYP125 Δλmax (nm) HS,"CYP125; compound 100 µM, P450 5 µM",0 nm
O=C(c1ccccc1)c1ccncc1 [2f],CYP142 Δλmax (nm),CYP142,0 nm
same,CYP125 Δλmax (nm) HS,"CYP125; compound 100 µM, P450 5 µM",0 nm
"C(=C\c1ccncc1)/c1ccccc1 [2g, (E)-4-Styrylpyridine]",CYP142 Δλmax (nm),CYP142,3 nm
same,CYP125 Δλmax (nm) LS,"CYP125; compound 100 µM, P450 5 µM",29 nm
same,CYP125 LS/HS,CYP125; [1],1.4
"c1ccc(CCc2ccncc2)cc1 [2h, 4-Phenethylpyridine]",CYP142 Δλmax (nm),CYP142,2 nm
same,CYP125 Δλmax (nm) HS,"CYP125; compound 100 µM, P450 5 µM",2 nm
same,CYP125 Δλmax (nm) LS,"CYP125; compound 100 µM, P450 5 µM",26 nm
same,CYP125 LS/HS,CYP125; [1],1
"COc1cccc(Cc2ccncc2)c1 [3a, 4-(3-Methoxybenzyl)pyridine]",CYP142 Δλmax (nm),CYP142,2 nm
same,CYP125 Δλmax (nm) HS,"CYP125; compound 100 µM, P450 5 µM",1 nm
same,CYP125 Δλmax (nm) LS,"CYP125; compound 100 µM, P450 5 µM",27 nm
same,CYP125 LS/HS,CYP125; [1],1.1
"COc1ccc(Cc2ccncc2)cc1 [3b, 4-(4-Methoxybenzyl)pyridine]",CYP142 Δλmax (nm),CYP142,2 nm
same,CYP125 Δλmax (nm) HS,"CYP125; compound 100 µM, P450 5 µM",1 nm
same,CYP125 Δλmax (nm) LS,"CYP125; compound 100 µM, P450 5 µM",25 nm
same,CYP125 LS/HS,CYP125; [1],1
Nc1ccc(Cc2ccncc2)cc1 [3e],CYP142 Δλmax (nm),CYP142,3 nm
same,CYP125 LS/HS,CYP125,1.7
same,CYP125 Δλmax (nm) HS,"CYP125; compound 100 µM, P450 5 µM",3 nm
same,CYP125 Δλmax (nm) LS,"CYP125; compound 100 µM, P450 5 µM",29 nm
"Nc1cccc(Nc2ccncc2)c1 [4a, N^1-(Pyridin-4-yl)benzene-1,3-diamine]",CYP142 Δλmax (nm),CYP142,3 nm
same,CYP125 Δλmax (nm) HS,"CYP125; compound 100 µM, P450 5 µM",1 nm
same,CYP125 Δλmax (nm) LS,"CYP125; compound 100 µM, P450 5 µM",22 nm
same,CYP125 LS/HS,CYP125; [1],0.9
"Nc1ccc(Nc2ccncc2)cc1 [4b, N^1-(Pyridin-4-yl)benzene-1,4-diamine]",CYP142 Δλmax (nm),CYP142,3 nm
same,CYP125 Δλmax (nm) HS,"CYP125; compound 100 µM, P450 5 µM",1 nm
same,CYP125 Δλmax (nm) LS,"CYP125; compound 100 µM, P450 5 µM",31 nm
same,CYP125 LS/HS,CYP125; [1],1.3
"COC(=O)c1cccc(Nc2ccncc2)c1 [4c, Methyl/Ethyl 3-(pyridin-4-ylamino)benzoate]",CYP142 Δλmax (nm),CYP142,3 nm
same,CYP125 Δλmax (nm) HS,"CYP125; compound 100 µM, P450 5 µM",1 nm
same,CYP125 Δλmax (nm) LS,"CYP125; compound 100 µM, P450 5 µM",27 nm
same,CYP125 LS/HS,CYP125; [1],1
"COC(=O)c1ccc(Nc2ccncc2)cc1 [4d, Methyl 4-(pyridin-4-ylamino)benzoate]",CYP142 Δλmax (nm),CYP142,3 nm
same,CYP125 Δλmax (nm) HS,"CYP125; compound 100 µM, P450 5 µM",2 nm
same,CYP125 Δλmax (nm) LS,"CYP125; compound 100 µM, P450 5 µM",26 nm
same,CYP125 LS/HS,CYP125; [1],1
"O=C(O)c1cccc(Nc2ccncc2)c1 [4e, 3-(Pyridin-4-ylamino)benzoic Acid]",CYP142 Δλmax (nm),CYP142,0 nm
same,CYP125 Δλmax (nm) HS,"CYP125; compound 100 µM, P450 5 µM",0 nm
"O=C(O)c1ccc(Nc2ccncc2)cc1 [4f, 4-(Pyridin-4-ylamino)benzoic Acid]",CYP142 Δλmax (nm),CYP142,0 nm
same,CYP125 Δλmax (nm) HS,"CYP125; compound 100 µM, P450 5 µM",1 nm
OCc1cccc(Nc2ccncc2)c1 [4g],CYP142 Δλmax (nm),CYP142,1 nm
same,CYP125 Δλmax (nm) HS,"CYP125; compound 100 µM, P450 5 µM",0 nm
"Brc1cccc(Nc2ccncc2)c1 [4h, N-(3-Bromophenyl)pyridin-4-amine]",CYP142 Δλmax (nm),CYP142,4 nm
same,CYP125 Δλmax (nm) LS,"CYP125; compound 100 µM, P450 5 µM",31 nm
same,CYP125 LS/HS,CYP125; [1],1.4
"Brc1ccc(Nc2ccncc2)cc1 [4i, N-(4-Bromophenyl)pyridin-4-amine]",CYP142 Δλmax (nm),CYP142,4 nm
same,CYP125 Δλmax (nm) HS,"CYP125; compound 100 µM, P450 5 µM",2 nm
same,CYP125 Δλmax (nm) LS,"CYP125; compound 100 µM, P450 5 µM",29 nm
same,CYP125 LS/HS,CYP125; [1],1.2
O=C(O)c1ccnnc1 [compound 1],"Δλmax (nm) CYP144, fragment screen",CYP144,0 nm
same,"Δλmax (nm) CYP121, fragment screen",CYP121,-1 nm
same,"Δλmax (nm) CYP124, fragment screen",CYP124,0 nm
same,"Δλmax (nm) CYP143, fragment screen",CYP143,0.5 nm
same,"Δλmax (nm) CYP126, fragment screen",CYP126,0 nm
same,"Δλmax (nm) CYP142, fragment screen",CYP142,0 nm
same,"Δλmax (nm) CYP125, fragment screen",CYP125,0 nm
c1ccc(-c2ccn[nH]2)nc1 [compound 2],"Δλmax (nm) CYP144, fragment screen",CYP144,0 nm
same,"Δλmax (nm) CYP121, fragment screen",CYP121,0 nm
same,"Δλmax (nm) CYP124, fragment screen",CYP124,0 nm
same,"Δλmax (nm) CYP143, fragment screen",CYP143,0 nm
same,"Δλmax (nm) CYP126, fragment screen",CYP126,0 nm
same,"Δλmax (nm) CYP142, fragment screen",CYP142,0 nm
same,"Δλmax (nm) CYP125, fragment screen",CYP125,0 nm
c1ccc(-c2ncc[nH]2)cc1 [compound 4],"Δλmax (nm) CYP144, fragment screen",CYP144,0 nm
same,"Δλmax (nm) CYP121, fragment screen",CYP121,0 nm
same,"Δλmax (nm) CYP124, fragment screen",CYP124,0 nm
same,"Δλmax (nm) CYP143, fragment screen",CYP143,0 nm
same,"Δλmax (nm) CYP126, fragment screen",CYP126,0 nm
same,"Δλmax (nm) CYP142, fragment screen",CYP142,0 nm
same,"Δλmax (nm) CYP125, fragment screen",CYP125,0 nm
Nc1cccc(Cn2cncn2)c1 [compound 5],"Δλmax (nm) CYP144, fragment screen",CYP144,0 nm
same,"Δλmax (nm) CYP121, fragment screen",CYP121,2 nm
same,"Δλmax (nm) CYP124, fragment screen",CYP124,1 nm
same,"Δλmax (nm) CYP143, fragment screen",CYP143,1 nm
same,"Δλmax (nm) CYP126, fragment screen",CYP126,0 nm
same,"Δλmax (nm) CYP142, fragment screen",CYP142,1.5 nm
same,"Δλmax (nm) CYP125, fragment screen",CYP125,0 nm
Clc1nccc2ccc(Br)cc12 [compound 37],"Δλmax (nm) CYP144, fragment screen",CYP144,0 nm
same,"Δλmax (nm) CYP121, fragment screen",CYP121,-3 nm
same,"Δλmax (nm) CYP124, fragment screen",CYP124,0 nm
same,"Δλmax (nm) CYP126, fragment screen",CYP126,0 nm
same,"Δλmax (nm) CYP142, fragment screen",CYP142,0 nm
same,"Δλmax (nm) CYP125, fragment screen",CYP125,0 nm
Nc1cccnc1O [compound 45],"Δλmax (nm) CYP144, fragment screen",CYP144,0 nm
same,"Δλmax (nm) CYP124, fragment screen",CYP124,0 nm
same,"Δλmax (nm) CYP143, fragment screen",CYP143,0 nm
same,"Δλmax (nm) CYP126, fragment screen",CYP126,0 nm
same,"Δλmax (nm) CYP142, fragment screen",CYP142,0 nm
same,"Δλmax (nm) CYP125, fragment screen",CYP125,0 nm
O=[N+]([O-])c1ccc(Br)c2ccncc12 [compound 59],"Δλmax (nm) CYP144, fragment screen",CYP144,0 nm
same,"Δλmax (nm) CYP124, fragment screen",CYP124,1 nm
same,"Δλmax (nm) CYP126, fragment screen",CYP126,0 nm
same,"Δλmax (nm) CYP142, fragment screen",CYP142,0 nm
same,"Δλmax (nm) CYP125, fragment screen",CYP125,0 nm
Clc1cccnc1Cl [compound 61],"Δλmax (nm) CYP144, fragment screen",CYP144,0 nm
same,"Δλmax (nm) CYP121, fragment screen",CYP121,0 nm
same,"Δλmax (nm) CYP124, fragment screen",CYP124,0 nm
same,"Δλmax (nm) CYP143, fragment screen",CYP143,0 nm
same,"Δλmax (nm) CYP126, fragment screen",CYP126,0 nm
same,"Δλmax (nm) CYP142, fragment screen",CYP142,0 nm
Nn1cccc1C(=O)O [compound 62],"Δλmax (nm) CYP144, fragment screen",CYP144,0 nm
same,"Δλmax (nm) CYP124, fragment screen",CYP124,0 nm
same,"Δλmax (nm) CYP143, fragment screen",CYP143,4 nm
same,"Δλmax (nm) CYP126, fragment screen",CYP126,0 nm
same,"Δλmax (nm) CYP142, fragment screen",CYP142,0 nm
COc1ncccc1C(=O)O [compound 65],"Δλmax (nm) CYP144, fragment screen",CYP144,0 nm
same,"Δλmax (nm) CYP121, fragment screen",CYP121,0 nm
same,"Δλmax (nm) CYP124, fragment screen",CYP124,0 nm
same,"Δλmax (nm) CYP143, fragment screen",CYP143,1 nm
same,"Δλmax (nm) CYP126, fragment screen",CYP126,0 nm
same,"Δλmax (nm) CYP142, fragment screen",CYP142,0 nm
Nc1cccnc1N [compound 66],"Δλmax (nm) CYP144, fragment screen",CYP144,0 nm
same,"Δλmax (nm) CYP124, fragment screen",CYP124,0 nm
same,"Δλmax (nm) CYP143, fragment screen",CYP143,0 nm
same,"Δλmax (nm) CYP126, fragment screen",CYP126,0 nm
same,"Δλmax (nm) CYP142, fragment screen",CYP142,0 nm
